{"source": "patent US20150374691A1", "about": "“METHODS AND MATERIALS FOR TREATING ORTHOSTATIC HYPOTENSION OR POSTURAL TACHYCARDIA SYNDROME” (Mayo Foundation for Medical Education and Research, priority 2009, published 2015)", "key": {"[1]": {"system": "patient with Lambert-Eaton myasthenic syndrome who also suffered from orthostatic hypotension", "test": "blood pressure and heart rate response to head-up tilt before and after 3,4-DAP", "type": "in vivo, human", "conditions": "one patient, after oral administration of 20 mg 3,4-DAP; before administration a significant drop was observed (FIG. 1)", "protocol": "FIG. 1 is a graph plotting the blood pressure and heart rate response to head-up tilt in a patient with orthostatic hypotension before (left) and after (right) oral administration of 20 mg of 3,4-DAP.\nThe effects of administering 3,4-DAP to a patient with orthostatic hypotension were studied. Briefly, the blood pressure and heart rate response to head-up tilt was studied in a patient with Lambert-Eaton myasthenic syndrome who also suffered from orthostatic hypotension before and after oral administration of 20 mg 3,4-DAP. Before administration of 3,4-DAP, a significant orthostatic blood pressure drop was observed after a head-up tilt (FIG. 1, left)."}, "[2]": {"system": "patients with myasthenic syndromes", "conditions": "among 132 patients enrolled, cited from earlier work"}}}
{"smiles": "Nc1ccncc1N", "note": "[3,4-DAP, 3,4-diaminopyridine]", "values": [{"measurement": "orthostatic blood pressure drop after a head-up tilt", "setting": "[1]", "result": "did not exhibit a significant orthostatic blood pressure drop"}, {"measurement": "seizures", "setting": "[2]; after being on the medication for years, clear cause-effect relationship not established", "result": "two patients experienced a self-limited seizure"}, {"measurement": "complications related to cardiac arrhythmias", "setting": "[2]", "result": "no noted complications related to cardiac arrhythmias"}]}
